Assay results: paper PMC5574958, “Radiosynthesis and Preclinical Evaluation of [^18F]F-DPA, A Novel Pyrazolo[1,5a]pyrimidine Acetamide TSPO Radioligand, in Healthy Sprague Dawley Rats” (Molecular Imaging and Biology, 2017)
One block for each compound: values may come before it.

Assays:
TSPO = conditions: read-out: K i (TSPO affinity); cited from earlier work
CBR = conditions: read-out: K i CBR (selectivity); cited from earlier work
Ex vivo biodistribution = assay type: in vivo, Sprague Dawley rats; conditions: for Uptake of fluorine-18-radioactivity, Harderian gland / Uptake of fluorine-18-radioactivity, Brain / Uptake of fluorine-18-radioactivity, Brown fat / Uptake of fluorine-18-radioactivity, Eye x2 / Uptake of fluorine-18-radioactivity, Injection site (tail) / Uptake of fluorine-18-radioactivity, Large int. Wall + contents / Uptake of fluorine-18-radioactivity, Liver / Uptake of fluorine-18-radioactivity, Lung / Uptake of fluorine-18-radioactivity, Muscle / Uptake of fluorine-18-radioactivity, Salivary x2 / Uptake of fluorine-18-radioactivity, Small int. wall + contents / Uptake of fluorine-18-radioactivity, Stomach wall + contents / Uptake of fluorine-18-radioactivity, Testis: mean, n = 3
Method: After sacrifice (5, 15, 30, 60, and 90 min after injection, n = 3, for every time point and radiotracer), the blood was collected into Li-heparin tubes and transcardial perfusion with saline was conducted rapidly in order to eliminate the blood from the whole body. Following this, the organs of the animals were collected, individually weighed, and the radioactivity was measured using a gamma counter (Wizard^2 3 × 3″, PerkinElmer, Turku, Finland). The decay-corrected radioactivity is reported as percentage of injected dose per gram (%ID/g).

[1] = Plasma protein binding (ultrafiltration of plasma after tracer injection); assay type: in vivo, Sprague Dawley rats; conditions: 15 min after injection, 30 kDa ultrafiltration, n = 3
Method: After 15 min, the animals were sacrificed and the blood was collected into Li-heparin tubes and centrifuged (3000×g, 10 min). A 10-μl aliquot of the plasma was spotted onto a TLC plate; following this, the remaining plasma was filtered by ultrafiltration using Microsep 30K Omega (Pall Life Sciences, Mexico) with a cut-off of 30 kDa. A 10-μl aliquot of the resulting supernatant was also spotted onto the TLC plate. The plates were exposed onto an imaging plate (Fuji BAS Imaging Plate TR2025, Fuji Photo Film Co., Ltd., Tokyo, Japan) for approximately two half-lives of fluorine-18 (3.5 to 4 h). After the exposure, the imaging plates were scanned using a BAS-5000 reader (Fuji, Japan) with a resolution of 50 μm and the saved images were analyzed using TINA software (version 2.10 g, Raytest, Isotopenmessgeräte, GmbH, Straubenhardt, Germany).

[2] = RadioTLC analyses of radiometabolites in plasma and brain homogenates; assay type: in vivo, Sprague Dawley rats; conditions: 90 min after injection, n = 3
Method: The blood samples were taken into Li-heparin tubes and centrifuged (3000×g, 10 min). The plasma was transferred to an Eppendorf tube and the plasma proteins were precipitated by addition of 1.5 parts of MeOH by volume. Following a further centrifugation (12,000×g, 4 min), 20 μl of the supernatant was spotted onto an aluminum-backed silica gel 60/Kieselguhr F254 TLC plate (EMD Millipore 1.05567.0001, Merck Millipore, Darmstadt, Germany).
Brain samples from the cortex were homogenized with approximately 200 μl of 1:1 v/v of MeOH and water; the mixture was transferred to an Eppendorf tube and centrifuged (12,000×g, 4 min). An aliquot (20 μl) of the supernatant was spotted onto the TLC plate.
The TLC plates were developed with a mixture of dichloromethane and methanol (9:1, v/v) for a distance of 6 cm. Following this, the plates were exposed onto an imaging plate (Fuji BAS Imaging Plate TR2025, Fuji Photo Film Co., Ltd., Tokyo, Japan) for approximately two half-lives of fluorine-18 (3.5 to 4 h). After the exposure, the imaging plates were scanned using a BAS-5000 reader (Fuji, Japan) with a resolution of 50 μm and the saved images were analyzed using TINA software (version 2.10 g, Raytest, Isotopenmessgeräte, GmbH, Straubenhardt, Germany).

Structure (SMILES): CCN(CC)C(=O)Cc1c(-c2ccc(F)cc2)nn2c(C)cc(C)nc12 [F-DPA, N,N-Diethyl-2-(2-(4-fluorophenyl)-5,7-dimethylpyrazolo[1,5-a]pyrimidin-3-yl)acetamide]
Ki (TSPO): 1.7 nM
Ki (CBR): > 1000 nM

Uptake of fluorine-18-radioactivity, Harderian gland (Ex vivo biodistribution; 5 min after injection): 0.40 %ID/g tissue
Uptake of fluorine-18-radioactivity, Harderian gland (Ex vivo biodistribution; 15 min after injection): 0.52 %ID/g tissue
Uptake of fluorine-18-radioactivity, Harderian gland (Ex vivo biodistribution; 30 min after injection): 0.45 %ID/g tissue
Uptake of fluorine-18-radioactivity, Harderian gland (Ex vivo biodistribution; 60 min after injection): 0.54 %ID/g tissue
Uptake of fluorine-18-radioactivity, Harderian gland (Ex vivo biodistribution; 90 min after injection): 0.43 %ID/g tissue
Uptake of fluorine-18-radioactivity, Brain (Ex vivo biodistribution; 5 min after injection): 0.29 %ID/g tissue
Uptake of fluorine-18-radioactivity, Brain (Ex vivo biodistribution; 15 min after injection): 0.17 %ID/g tissue
Uptake of fluorine-18-radioactivity, Brain (Ex vivo biodistribution; 30 min after injection): 0.12 %ID/g tissue
Uptake of fluorine-18-radioactivity, Brain (Ex vivo biodistribution; 60 min after injection): 0.09 %ID/g tissue
Uptake of fluorine-18-radioactivity, Brain (Ex vivo biodistribution; 90 min after injection): 0.08 %ID/g tissue
Uptake of fluorine-18-radioactivity, Brown fat (Ex vivo biodistribution; 5 min after injection): 0.22 %ID/g tissue
Uptake of fluorine-18-radioactivity, Brown fat (Ex vivo biodistribution; 15 min after injection): 0.31 %ID/g tissue
Uptake of fluorine-18-radioactivity, Brown fat (Ex vivo biodistribution; 30 min after injection): 0.51 %ID/g tissue
Uptake of fluorine-18-radioactivity, Brown fat (Ex vivo biodistribution; 60 min after injection): 1.07 %ID/g tissue
Uptake of fluorine-18-radioactivity, Brown fat (Ex vivo biodistribution; 90 min after injection): 1.25 %ID/g tissue
Uptake of fluorine-18-radioactivity, Eye x2 (Ex vivo biodistribution; eye x2, 5 min after injection): 0.28 %ID/g tissue
Uptake of fluorine-18-radioactivity, Eye x2 (Ex vivo biodistribution; eye x2, 15 min after injection): 0.29 %ID/g tissue
Uptake of fluorine-18-radioactivity, Eye x2 (Ex vivo biodistribution; eye x2, 30 min after injection): 0.26 %ID/g tissue
Uptake of fluorine-18-radioactivity, Eye x2 (Ex vivo biodistribution; eye x2, 60 min after injection): 0.22 %ID/g tissue
Uptake of fluorine-18-radioactivity, Eye x2 (Ex vivo biodistribution; eye x2, 90 min after injection): 0.20 %ID/g tissue
Uptake of fluorine-18-radioactivity, Injection site (tail) (Ex vivo biodistribution; 5 min after injection): 0.49 %ID/g tissue
Uptake of fluorine-18-radioactivity, Injection site (tail) (Ex vivo biodistribution; 15 min after injection): 0.29 %ID/g tissue
Uptake of fluorine-18-radioactivity, Injection site (tail) (Ex vivo biodistribution; 30 min after injection): 0.34 %ID/g tissue
Uptake of fluorine-18-radioactivity, Injection site (tail) (Ex vivo biodistribution; 60 min after injection): 0.38 %ID/g tissue
Uptake of fluorine-18-radioactivity, Injection site (tail) (Ex vivo biodistribution; 90 min after injection): 0.24 %ID/g tissue
Uptake of fluorine-18-radioactivity, Large int. Wall + contents (Ex vivo biodistribution; 5 min after injection): 0.20 %ID/g tissue
Uptake of fluorine-18-radioactivity, Large int. Wall + contents (Ex vivo biodistribution; 15 min after injection): 0.24 %ID/g tissue
Uptake of fluorine-18-radioactivity, Large int. Wall + contents (Ex vivo biodistribution; 30 min after injection): 0.26 %ID/g tissue
Uptake of fluorine-18-radioactivity, Large int. Wall + contents (Ex vivo biodistribution; 60 min after injection): 0.41 %ID/g tissue
Uptake of fluorine-18-radioactivity, Large int. Wall + contents (Ex vivo biodistribution; 90 min after injection): 0.29 %ID/g tissue
Uptake of fluorine-18-radioactivity, Liver (Ex vivo biodistribution; 5 min after injection): 0.78 %ID/g tissue
Uptake of fluorine-18-radioactivity, Liver (Ex vivo biodistribution; 15 min after injection): 0.87 %ID/g tissue
Uptake of fluorine-18-radioactivity, Liver (Ex vivo biodistribution; 30 min after injection): 0.60 %ID/g tissue
Uptake of fluorine-18-radioactivity, Liver (Ex vivo biodistribution; 60 min after injection): 0.37 %ID/g tissue
Uptake of fluorine-18-radioactivity, Liver (Ex vivo biodistribution; 90 min after injection): 0.26 %ID/g tissue
Uptake of fluorine-18-radioactivity, Lung (Ex vivo biodistribution; 5 min after injection): 19.83 %ID/g tissue
Uptake of fluorine-18-radioactivity, Lung (Ex vivo biodistribution; 15 min after injection): 10.24 %ID/g tissue
Uptake of fluorine-18-radioactivity, Lung (Ex vivo biodistribution; 30 min after injection): 5.73 %ID/g tissue
Uptake of fluorine-18-radioactivity, Lung (Ex vivo biodistribution; 60 min after injection): 3.01 %ID/g tissue
Uptake of fluorine-18-radioactivity, Lung (Ex vivo biodistribution; 90 min after injection): 2.00 %ID/g tissue
Uptake of fluorine-18-radioactivity, Muscle (Ex vivo biodistribution; 5 min after injection): 0.07 %ID/g tissue
Uptake of fluorine-18-radioactivity, Muscle (Ex vivo biodistribution; 15 min after injection): 0.07 %ID/g tissue
Uptake of fluorine-18-radioactivity, Muscle (Ex vivo biodistribution; 30 min after injection): 0.11 %ID/g tissue
Uptake of fluorine-18-radioactivity, Muscle (Ex vivo biodistribution; 60 min after injection): 0.16 %ID/g tissue
Uptake of fluorine-18-radioactivity, Muscle (Ex vivo biodistribution; 90 min after injection): 0.18 %ID/g tissue
Uptake of fluorine-18-radioactivity, Salivary x2 (Ex vivo biodistribution; salivary x2, 5 min after injection): 0.59 %ID/g tissue
Uptake of fluorine-18-radioactivity, Salivary x2 (Ex vivo biodistribution; salivary x2, 15 min after injection): 1.34 %ID/g tissue
Uptake of fluorine-18-radioactivity, Salivary x2 (Ex vivo biodistribution; salivary x2, 30 min after injection): 0.88 %ID/g tissue
Uptake of fluorine-18-radioactivity, Salivary x2 (Ex vivo biodistribution; salivary x2, 60 min after injection): 1.00 %ID/g tissue
Uptake of fluorine-18-radioactivity, Salivary x2 (Ex vivo biodistribution; salivary x2, 90 min after injection): 0.89 %ID/g tissue
Uptake of fluorine-18-radioactivity, Small int. wall + contents (Ex vivo biodistribution; 5 min after injection): 0.69 %ID/g tissue
Uptake of fluorine-18-radioactivity, Small int. wall + contents (Ex vivo biodistribution; 15 min after injection): 1.07 %ID/g tissue
Uptake of fluorine-18-radioactivity, Small int. wall + contents (Ex vivo biodistribution; 30 min after injection): 1.44 %ID/g tissue
Uptake of fluorine-18-radioactivity, Small int. wall + contents (Ex vivo biodistribution; 60 min after injection): 1.80 %ID/g tissue
Uptake of fluorine-18-radioactivity, Small int. wall + contents (Ex vivo biodistribution; 90 min after injection): 2.04 %ID/g tissue
Uptake of fluorine-18-radioactivity, Stomach wall + contents (Ex vivo biodistribution; 5 min after injection): 0.27 %ID/g tissue
Uptake of fluorine-18-radioactivity, Stomach wall + contents (Ex vivo biodistribution; 15 min after injection): 0.65 %ID/g tissue
Uptake of fluorine-18-radioactivity, Stomach wall + contents (Ex vivo biodistribution; 30 min after injection): 0.43 %ID/g tissue
Uptake of fluorine-18-radioactivity, Stomach wall + contents (Ex vivo biodistribution; 60 min after injection): 0.33 %ID/g tissue
Uptake of fluorine-18-radioactivity, Stomach wall + contents (Ex vivo biodistribution; 90 min after injection): 0.44 %ID/g tissue
Uptake of fluorine-18-radioactivity, Testis (Ex vivo biodistribution; 5 min after injection): 0.11 %ID/g tissue
Uptake of fluorine-18-radioactivity, Testis (Ex vivo biodistribution; 15 min after injection): 0.10 %ID/g tissue
Uptake of fluorine-18-radioactivity, Testis (Ex vivo biodistribution; 30 min after injection): 0.13 %ID/g tissue
Uptake of fluorine-18-radioactivity, Testis (Ex vivo biodistribution; 60 min after injection): 0.14 %ID/g tissue
Uptake of fluorine-18-radioactivity, Testis (Ex vivo biodistribution; 90 min after injection): 0.14 %ID/g tissue
Fraction of radioactivity unbound to the plasma proteins [1]: 32.8 ± 8.8%
Unchanged radiotracer, share of radioactivity in the brain ([2]; brain homogenate): 53.6 ± 1.6%
Unchanged radiotracer, share of radioactivity in the plasma ([2]; plasma): 11.1 ± 2.6%
Structure (SMILES): CCN(CC)C(=O)Cc1c(-c2ccc(OCC[18F])cc2)nn2c(C)cc(C)nc12 [[^18F]DPA-714, reference compound]
Accumulation of radioactivity in the bone (defluorination in vivo) (Ex vivo biodistribution; after the initial uptake at 5 min, up to 90 min): no significant accumulation of radioactivity in the bone
Ki (CBR): > 1000 nM
